pIC50: −log10 of the molar value. Converted amounts (≈) assume the structure as drawn. Read-outs that look alike come from different tables or passages of the source.
What was measured:
Micrococcus luteus = assay: microbe, parasite or virus in culture; format: cell-based; details: Micrococcus luteus; lowest concentration which suppresses growth; determined during 24 hours; NI = no inhibition was observed
Rpf Sm [1] = target: T1, Rpf Sm (Micrococcus luteus, UniProt O86308); assay: Muralytic activity of Rpf, 4-MUF-3-NAG hydrolysis; format: biochemical, M. luteus
T1 construct: His-tag (inferred from the pET19b vector and the Ni2+-chelation purification); made in house; host or cells: E. coli HSM174 (DE3)
T1 sequence (O86308 42-134): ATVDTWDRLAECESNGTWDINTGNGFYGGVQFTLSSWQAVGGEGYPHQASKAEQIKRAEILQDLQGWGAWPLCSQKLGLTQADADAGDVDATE
Description: The truncated form of M.luteus Rpf (RpfSm) was used for the analysis. The truncated protein contained conserved Rpf domain and additional 20 amino acids of the gene product, corresponding to the following amino acid sequence:
To determine a muralytic activity of the recombinant Rpfs', 4-methylumbelliferyl-β-D-N, N′, N″-triacetylchitotrioside (4-MUF-3-NAG) (“Sigma”, Germany) was applied. […] A number of experiments were performed in the presence of NPT compounds, in concentration range of 0.5–10 µg/ml. After 3 hours of incubation at 37°C, 2 µl of 10 M NaOH was added and the samples were frozen and kept at −20°C. […] The intensity of fluorescence was detected by the RF-5301PC fluorimeter (“SHIMADZU”, Japan) using excitation wavelength of 364 nm and a read-out of 448 nm.

ΔDUFRpf B [2] = target: T2, ΔDUFRpf B (Mycobacterium tuberculosis, UniProt P9WG29); format: binding, M. tuberculosis
T2 sequence (P9WG29 whole entry, looked up, stated change not applied): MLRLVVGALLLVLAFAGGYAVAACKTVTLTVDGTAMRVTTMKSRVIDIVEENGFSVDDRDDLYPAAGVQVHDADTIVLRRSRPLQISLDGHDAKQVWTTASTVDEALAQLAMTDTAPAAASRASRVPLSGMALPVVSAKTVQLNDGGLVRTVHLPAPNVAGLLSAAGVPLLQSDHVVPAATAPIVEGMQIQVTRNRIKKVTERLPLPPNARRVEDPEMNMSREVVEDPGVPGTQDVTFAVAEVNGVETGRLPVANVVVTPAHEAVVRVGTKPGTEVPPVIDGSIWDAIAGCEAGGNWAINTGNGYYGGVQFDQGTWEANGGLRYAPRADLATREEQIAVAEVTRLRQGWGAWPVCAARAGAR

[3] = tested on: M. smegmatis "non-culturable" cells; format: cell-based, Mycobacterium smegmatis; details: MPN assay
[4] = tested on: M. tuberculosis "non-culturable" cells; format: cell-based, Mycobacterium tuberculosis; details: inhibitor 10 µg/ml
[5] = tested on: Alcoholdehydrohenase(1.1.1.1); assay: Alcoholdehydrogenase activity (NAD+ to NADH, OD340); format: biochemical; details: control 1.7
Description: (§1) Alcoholdehydrohenase(1.1.1.1) activity: ADH was dissolved in 50 mM phospahe buffer pH 7 at the concentration 10 µg/ml. The rate of the reaction was judged by transformation of NAD^+ (1 mM) into NADH+H^+. As the substrate ethanol was used. Activity was measured by OD340. Laccase(1.10.3.2) activity: Laccase was dissolved in the 50 mM citrate-phosphate buffer, pH4.5 at concentration 9 µg/ml. Pyrocatechin was used at concentration 11 µg/ml. Activity was measured by OD410. Trypsin(3.4.21.4) activity: The enzyme at concentration 8.0 µg/ml was dissolved in 50 mM Tris-HCl buffer pH 8.0. Concentration of the substrate (N-CBz-Gly-Gly-Arg-β-naphthylamide - Sigma-Aldrich)- 11 µg/ml. Registration of the kinetic curves was made fluorimetrically - excitation wavelength - 330 nm; emission - 420 nm. (0.02 MB DOC) Click here for additional data file.

Laccase(1.10.3.2) = assay: Laccase activity (pyrocatechin, OD410); format: biochemical; details: control 3.6
Description: as §1

Trypsin(3.4.21.4) = assay: Trypsin activity (fluorimetric); format: biochemical; details: control 10
Description: as §1

Rpf Sm [6] = target: T1, Rpf Sm; details: inhibitor 2 and 4 µg/ml, Rpf Sm 40 µg/ml
ΔDUFRpf B [7] = target: T2, ΔDUFRpf B; design: species or system M. tuberculosis; details: inhibitor 2 and 4 µg/ml, ΔDUFRpf B 60 µg/ml
M. smegmatis = format: cell-based, Mycobacterium smegmatis; details: at 0.1–1 µg/ml (not shown)

## N#CSc1ccc(C(=O)c2ccccc2)cc1[N+](=O)[O-] [VII, 4-Benzoyl-2-nitrophenyl thiocyanate]
Micrococcus luteus
  MIC: 1 to 5 µg/mL (≈ 3.52 to 17.6 µM)
Rpf Sm [1]
  pIC50: 5.18
Rpf Sm [1]; substrate 3 to 24 µM, inhibitor 0.5 to 10 µg/ml
  type of inhibition of Rpf-Sm muralytic activity (Lineweaver-Burk plot): non-competitive inhibition
ΔDUFRpf B [2]; fluorescence studies
  interaction with the buried tryptophanes of ΔDUFRpfB: interacted with at least two exposed and one buried tryptophan
ΔDUFRpf B [2]; modified Stern-Volmer equation, excitation 280 nm, emission 340 nm
  accessible fraction of ΔDUFRpfB tryptophanes (fa): ~65%
[3]
  concentrations active in suppressing resuscitation of M. smegmatis: 0.1 to 1 µg/mL
[4]; time 0 days
  MPN, logarithmic transformation of cell concentration (cells/ml): 3.48
[4]; time 14 days
  MPN, logarithmic transformation of cell concentration (cells/ml): 3.48
[4]; time 19 days
  MPN, logarithmic transformation of cell concentration (cells/ml): 3.48
[4]; time 21 days
  MPN, logarithmic transformation of cell concentration (cells/ml): 3.86
[4]; time 23 days
  MPN, logarithmic transformation of cell concentration (cells/ml): 5.38
[4]; time 27 days
  MPN, logarithmic transformation of cell concentration (cells/ml): 6.18
[4]; time 30 days
  MPN, logarithmic transformation of cell concentration (cells/ml): 6.18
[4]; time 33 days
  MPN, logarithmic transformation of cell concentration (cells/ml): 6.18
[4]; time 36 days
  MPN, logarithmic transformation of cell concentration (cells/ml): 6.18
[4]; time 40 days
  MPN, logarithmic transformation of cell concentration (cells/ml): 6.18
[5]; compound 4 µg/ml
  τ1/2, time needed to achieve a 50% level of substrate conversion, Alchoholdehydrohenase: 1.75 s
[5]; compound 10 µg/ml
  τ1/2, time needed to achieve a 50% level of substrate conversion, Alchoholdehydrohenase: 1.7 s
Laccase(1.10.3.2); compound 4 µg/ml
  τ1/2, time needed to achieve a 50% level of substrate conversion, Laccase: 3.6 s
Laccase(1.10.3.2); compound 10 µg/ml
  τ1/2, time needed to achieve a 50% level of substrate conversion, Laccase: 3.5 s
Trypsin(3.4.21.4); compound 4 µg/ml
  τ1/2, time needed to achieve a 50% level of substrate conversion, Trypsin: 10 s
Trypsin(3.4.21.4); compound 10 µg/ml
  τ1/2, time needed to achieve a 50% level of substrate conversion, Trypsin: 10 s
Rpf Sm [6]
  changes in the CD spectra of Rpf Sm: did not produce significant changes
ΔDUFRpf B [7]
  changes in the CD spectra of ΔDUFRpf B: did not produce significant changes
M. smegmatis
  growth of active cells of M. smegmatis: did not inhibit growth
other
  melting point: 104 to 106 °C
